For seven compounds, % binding, % of control and % of inhibition results are on record in ChEMBL document CHEMBL5465560, “Selectivity Literature for EUbOPEN Chemogenomic Library” (2024).

For assay [1], the target named is Mitogen-activated protein kinase kinase kinase 9 (Homo sapiens) (UniProt P80192). Put plainly: Selectivity interaction (KinomeScan (DiscoverX)) EUB0000229b MAP3K9. As to conditions: at 10 µM.
The target in assay [2] is T1, Serine/threonine-protein kinase ULK3 (Homo sapiens) (UniProt Q6PHR2).
T1 sequence (whole entry): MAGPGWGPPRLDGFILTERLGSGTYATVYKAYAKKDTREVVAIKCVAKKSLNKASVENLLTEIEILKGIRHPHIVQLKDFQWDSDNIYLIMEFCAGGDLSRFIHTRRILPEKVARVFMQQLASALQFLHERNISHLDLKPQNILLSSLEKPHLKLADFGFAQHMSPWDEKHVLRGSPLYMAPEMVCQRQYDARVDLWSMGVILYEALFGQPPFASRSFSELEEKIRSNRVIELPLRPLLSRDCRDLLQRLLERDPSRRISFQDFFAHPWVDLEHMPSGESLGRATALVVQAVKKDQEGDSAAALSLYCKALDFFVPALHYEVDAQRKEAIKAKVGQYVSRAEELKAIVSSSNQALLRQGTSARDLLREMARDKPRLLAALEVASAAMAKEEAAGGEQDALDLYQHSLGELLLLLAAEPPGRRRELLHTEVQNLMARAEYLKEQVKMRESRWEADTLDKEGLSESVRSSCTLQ
Put plainly: Selectivity interaction (KinomeScan (DiscoverX)) EUB0000229b ULK3. As to conditions: at 10 µM.

For assay [3], the target named is T2, Serine/threonine-protein kinase RIO3 (Homo sapiens) (UniProt O14730).
T2 sequence (whole entry): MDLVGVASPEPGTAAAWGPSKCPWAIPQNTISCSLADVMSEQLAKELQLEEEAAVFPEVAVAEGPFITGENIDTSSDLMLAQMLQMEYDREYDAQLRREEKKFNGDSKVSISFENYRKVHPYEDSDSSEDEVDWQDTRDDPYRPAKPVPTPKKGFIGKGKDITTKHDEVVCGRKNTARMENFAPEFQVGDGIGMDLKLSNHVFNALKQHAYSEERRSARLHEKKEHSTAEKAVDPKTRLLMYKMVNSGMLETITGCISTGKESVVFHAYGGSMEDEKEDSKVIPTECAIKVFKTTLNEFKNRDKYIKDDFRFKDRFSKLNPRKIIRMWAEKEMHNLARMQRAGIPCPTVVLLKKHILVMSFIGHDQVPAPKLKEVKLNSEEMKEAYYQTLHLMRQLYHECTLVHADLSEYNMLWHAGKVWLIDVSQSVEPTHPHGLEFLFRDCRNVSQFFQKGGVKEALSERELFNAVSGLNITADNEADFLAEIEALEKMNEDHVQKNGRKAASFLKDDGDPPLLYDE
Kind of assay: Selectivity interaction (KinomeScan (DiscoverX)) EUB0001079a RIOK3. The conditions noted are these: at 1 µM.

In assay [4] the target is Homeodomain-interacting protein kinase 3 (Homo sapiens, UniProt Q9H422). Put plainly: Selectivity interaction (KinomeScan (DiscoverX)) EUB0001619a HIPK3. As to conditions: at 1 µM.
In assay [5] the target is Protein-tyrosine kinase 2-beta (Homo sapiens) (UniProt Q14289). Put plainly: Selectivity interaction (ActivX KiNativ screen (kinase selectivity in THP-1 cell lysates)) EUB0000639a PTK2B. The format is subcellular. The conditions noted are these: lysate, at 1 µM.
Protein-tyrosine kinase 2-beta (Homo sapiens), sequence (Q14289 whole entry, looked up): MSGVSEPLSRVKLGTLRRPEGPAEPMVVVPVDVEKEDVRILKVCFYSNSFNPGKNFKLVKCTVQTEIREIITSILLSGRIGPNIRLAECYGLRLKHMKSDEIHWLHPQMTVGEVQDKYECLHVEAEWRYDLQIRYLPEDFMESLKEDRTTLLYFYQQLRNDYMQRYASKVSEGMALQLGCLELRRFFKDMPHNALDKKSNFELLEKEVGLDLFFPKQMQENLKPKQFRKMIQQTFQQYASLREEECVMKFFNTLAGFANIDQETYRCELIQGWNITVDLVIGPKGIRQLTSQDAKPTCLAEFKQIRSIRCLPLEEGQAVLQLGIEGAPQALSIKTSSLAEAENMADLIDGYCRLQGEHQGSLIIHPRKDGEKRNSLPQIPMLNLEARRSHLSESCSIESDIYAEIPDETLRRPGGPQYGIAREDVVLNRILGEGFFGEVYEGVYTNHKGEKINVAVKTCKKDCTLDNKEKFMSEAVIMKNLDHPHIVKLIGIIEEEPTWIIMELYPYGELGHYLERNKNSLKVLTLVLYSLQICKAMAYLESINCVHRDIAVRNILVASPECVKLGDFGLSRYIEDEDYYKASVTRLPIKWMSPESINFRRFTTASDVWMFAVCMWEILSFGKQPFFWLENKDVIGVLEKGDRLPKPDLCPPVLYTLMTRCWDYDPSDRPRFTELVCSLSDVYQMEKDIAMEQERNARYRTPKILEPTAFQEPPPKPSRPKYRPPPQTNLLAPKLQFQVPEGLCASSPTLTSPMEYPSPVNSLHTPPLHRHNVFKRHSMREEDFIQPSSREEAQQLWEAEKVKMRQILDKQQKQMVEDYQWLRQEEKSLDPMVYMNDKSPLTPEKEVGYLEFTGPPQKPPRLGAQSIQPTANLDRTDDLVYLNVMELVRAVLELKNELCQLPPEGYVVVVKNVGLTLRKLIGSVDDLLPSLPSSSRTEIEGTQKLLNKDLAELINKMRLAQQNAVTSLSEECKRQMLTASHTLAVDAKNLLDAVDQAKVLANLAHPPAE
Assay [6] concerns the target Ribosomal protein S6 kinase alpha-3 (Homo sapiens, UniProt P51812). Kind of assay: Selectivity interaction (KinomeScan (DiscoverX)) EUB0001049a RPS6KA3. The conditions noted are these: at 1 µM.
Assay [7] has as its target T3, Muscarinic acetylcholine receptor M1 (Homo sapiens) (UniProt P11229).
T3 sequence (whole entry): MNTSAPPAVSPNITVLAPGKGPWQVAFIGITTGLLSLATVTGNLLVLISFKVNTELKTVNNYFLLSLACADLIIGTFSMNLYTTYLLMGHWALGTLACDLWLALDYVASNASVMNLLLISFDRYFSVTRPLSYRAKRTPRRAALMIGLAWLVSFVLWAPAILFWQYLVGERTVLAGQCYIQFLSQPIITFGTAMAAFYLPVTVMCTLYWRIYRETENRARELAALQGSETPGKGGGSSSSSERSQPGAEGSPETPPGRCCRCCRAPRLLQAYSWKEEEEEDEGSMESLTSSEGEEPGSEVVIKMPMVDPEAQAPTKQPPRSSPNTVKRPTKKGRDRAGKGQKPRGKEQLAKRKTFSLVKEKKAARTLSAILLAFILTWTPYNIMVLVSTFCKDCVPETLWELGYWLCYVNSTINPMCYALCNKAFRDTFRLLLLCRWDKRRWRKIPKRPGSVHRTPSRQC
Put plainly: Selectivity interaction (Eurofins CEREP Diversity Profile (receptors and ion channels)) EUB0000279b CHRM1. The conditions noted are these: at 10 µM.

Assay [8] deals with Cyclin-dependent kinase 13 (Homo sapiens, UniProt Q14004). Kind of assay: Selectivity interaction (KinomeScan (DiscoverX)) EUB0000595a CDK13. As to conditions: at 10 µM.
Cyclin-dependent kinase 13, sequence (Q14004 whole entry, looked up): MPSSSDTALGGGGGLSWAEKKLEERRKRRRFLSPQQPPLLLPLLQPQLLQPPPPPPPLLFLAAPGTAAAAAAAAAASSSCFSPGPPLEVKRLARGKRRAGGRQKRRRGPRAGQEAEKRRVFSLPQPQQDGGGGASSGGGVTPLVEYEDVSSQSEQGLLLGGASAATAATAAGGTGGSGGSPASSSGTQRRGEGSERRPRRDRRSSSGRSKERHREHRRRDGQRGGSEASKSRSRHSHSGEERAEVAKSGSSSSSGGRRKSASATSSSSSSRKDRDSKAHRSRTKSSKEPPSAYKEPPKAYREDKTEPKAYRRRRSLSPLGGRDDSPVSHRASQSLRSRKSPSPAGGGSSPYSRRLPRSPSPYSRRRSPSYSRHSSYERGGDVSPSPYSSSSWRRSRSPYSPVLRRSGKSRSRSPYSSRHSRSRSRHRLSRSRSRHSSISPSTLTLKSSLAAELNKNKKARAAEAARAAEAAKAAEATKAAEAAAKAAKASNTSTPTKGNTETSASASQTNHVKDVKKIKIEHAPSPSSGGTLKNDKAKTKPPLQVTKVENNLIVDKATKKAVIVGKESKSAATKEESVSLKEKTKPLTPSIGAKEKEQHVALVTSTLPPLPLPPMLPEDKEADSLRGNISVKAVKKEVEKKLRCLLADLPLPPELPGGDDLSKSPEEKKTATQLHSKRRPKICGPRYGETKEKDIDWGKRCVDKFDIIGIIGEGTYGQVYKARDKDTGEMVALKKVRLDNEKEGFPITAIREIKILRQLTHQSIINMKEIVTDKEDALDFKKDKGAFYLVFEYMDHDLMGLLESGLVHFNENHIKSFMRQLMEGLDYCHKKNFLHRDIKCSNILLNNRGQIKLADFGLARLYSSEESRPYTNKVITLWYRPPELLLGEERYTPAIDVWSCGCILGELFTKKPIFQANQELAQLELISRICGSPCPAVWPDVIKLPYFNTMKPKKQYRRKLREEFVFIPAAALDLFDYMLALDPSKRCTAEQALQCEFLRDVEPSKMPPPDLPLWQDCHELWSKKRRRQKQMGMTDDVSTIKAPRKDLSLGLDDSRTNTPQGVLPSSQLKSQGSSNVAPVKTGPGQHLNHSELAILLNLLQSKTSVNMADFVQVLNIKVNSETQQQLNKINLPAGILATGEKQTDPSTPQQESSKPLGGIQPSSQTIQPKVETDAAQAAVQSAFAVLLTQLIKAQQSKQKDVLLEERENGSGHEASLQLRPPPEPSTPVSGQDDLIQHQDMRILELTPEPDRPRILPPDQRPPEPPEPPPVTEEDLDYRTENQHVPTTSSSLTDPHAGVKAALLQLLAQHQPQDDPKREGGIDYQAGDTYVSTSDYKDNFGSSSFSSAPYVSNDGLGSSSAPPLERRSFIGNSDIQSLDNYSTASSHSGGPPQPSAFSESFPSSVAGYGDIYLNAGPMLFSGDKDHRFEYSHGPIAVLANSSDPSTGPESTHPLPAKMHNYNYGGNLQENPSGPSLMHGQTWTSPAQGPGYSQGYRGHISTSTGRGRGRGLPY
Assay [9] deals with T4, Mitogen-activated protein kinase kinase kinase 13 (Homo sapiens) (UniProt O43283).
T4 sequence (whole entry): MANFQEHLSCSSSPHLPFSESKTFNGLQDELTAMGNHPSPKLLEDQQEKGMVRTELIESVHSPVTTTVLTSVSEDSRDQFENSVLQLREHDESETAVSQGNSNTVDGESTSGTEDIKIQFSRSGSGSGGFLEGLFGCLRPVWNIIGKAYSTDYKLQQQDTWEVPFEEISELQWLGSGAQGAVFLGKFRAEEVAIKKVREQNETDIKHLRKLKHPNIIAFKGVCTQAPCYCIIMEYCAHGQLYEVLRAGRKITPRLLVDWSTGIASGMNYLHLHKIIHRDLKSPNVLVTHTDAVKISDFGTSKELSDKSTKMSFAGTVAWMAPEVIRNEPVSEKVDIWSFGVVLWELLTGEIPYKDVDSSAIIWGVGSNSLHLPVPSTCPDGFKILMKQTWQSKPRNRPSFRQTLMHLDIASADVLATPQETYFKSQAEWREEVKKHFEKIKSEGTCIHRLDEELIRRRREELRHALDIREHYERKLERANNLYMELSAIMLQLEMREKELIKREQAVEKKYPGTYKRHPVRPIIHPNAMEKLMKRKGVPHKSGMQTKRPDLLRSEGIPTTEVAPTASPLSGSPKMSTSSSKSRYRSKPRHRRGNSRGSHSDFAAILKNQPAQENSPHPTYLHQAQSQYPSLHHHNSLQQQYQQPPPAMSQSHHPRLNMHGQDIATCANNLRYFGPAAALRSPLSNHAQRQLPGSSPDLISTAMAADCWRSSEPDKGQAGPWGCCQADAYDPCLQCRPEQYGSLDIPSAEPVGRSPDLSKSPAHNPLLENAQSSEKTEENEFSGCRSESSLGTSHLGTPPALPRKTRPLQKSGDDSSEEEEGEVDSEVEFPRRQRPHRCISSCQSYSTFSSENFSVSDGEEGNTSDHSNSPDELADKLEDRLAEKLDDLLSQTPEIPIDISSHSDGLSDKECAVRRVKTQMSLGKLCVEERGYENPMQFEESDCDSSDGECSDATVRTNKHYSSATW
Put plainly: Selectivity interaction (KinomeScan (DiscoverX)) EUB0000595a MAP3K13. The conditions noted are these: at 10 µM.

Ribosomal protein S6 kinase alpha-3, sequence (P51812 whole entry): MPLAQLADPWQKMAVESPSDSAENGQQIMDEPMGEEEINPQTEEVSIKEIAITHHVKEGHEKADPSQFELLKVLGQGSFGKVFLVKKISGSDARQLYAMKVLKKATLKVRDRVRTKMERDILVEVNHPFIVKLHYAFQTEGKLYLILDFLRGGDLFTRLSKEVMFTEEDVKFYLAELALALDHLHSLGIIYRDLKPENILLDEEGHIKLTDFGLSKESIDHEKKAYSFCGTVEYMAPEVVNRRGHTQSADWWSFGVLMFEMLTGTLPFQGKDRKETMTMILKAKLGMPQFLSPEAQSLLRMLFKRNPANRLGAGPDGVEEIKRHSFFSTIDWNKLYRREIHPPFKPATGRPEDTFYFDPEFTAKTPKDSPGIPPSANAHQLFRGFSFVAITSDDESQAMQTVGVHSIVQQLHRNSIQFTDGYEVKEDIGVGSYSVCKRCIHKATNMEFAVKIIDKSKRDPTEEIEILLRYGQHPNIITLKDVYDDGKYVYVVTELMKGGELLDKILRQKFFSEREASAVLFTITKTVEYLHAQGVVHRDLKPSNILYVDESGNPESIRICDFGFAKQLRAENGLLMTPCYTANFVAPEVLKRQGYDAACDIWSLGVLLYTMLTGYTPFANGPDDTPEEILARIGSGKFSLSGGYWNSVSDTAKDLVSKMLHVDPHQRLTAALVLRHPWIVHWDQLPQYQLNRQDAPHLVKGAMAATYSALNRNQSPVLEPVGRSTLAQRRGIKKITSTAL
Mitogen-activated protein kinase kinase kinase 9 (Homo sapiens), sequence (P80192 whole entry, looked up): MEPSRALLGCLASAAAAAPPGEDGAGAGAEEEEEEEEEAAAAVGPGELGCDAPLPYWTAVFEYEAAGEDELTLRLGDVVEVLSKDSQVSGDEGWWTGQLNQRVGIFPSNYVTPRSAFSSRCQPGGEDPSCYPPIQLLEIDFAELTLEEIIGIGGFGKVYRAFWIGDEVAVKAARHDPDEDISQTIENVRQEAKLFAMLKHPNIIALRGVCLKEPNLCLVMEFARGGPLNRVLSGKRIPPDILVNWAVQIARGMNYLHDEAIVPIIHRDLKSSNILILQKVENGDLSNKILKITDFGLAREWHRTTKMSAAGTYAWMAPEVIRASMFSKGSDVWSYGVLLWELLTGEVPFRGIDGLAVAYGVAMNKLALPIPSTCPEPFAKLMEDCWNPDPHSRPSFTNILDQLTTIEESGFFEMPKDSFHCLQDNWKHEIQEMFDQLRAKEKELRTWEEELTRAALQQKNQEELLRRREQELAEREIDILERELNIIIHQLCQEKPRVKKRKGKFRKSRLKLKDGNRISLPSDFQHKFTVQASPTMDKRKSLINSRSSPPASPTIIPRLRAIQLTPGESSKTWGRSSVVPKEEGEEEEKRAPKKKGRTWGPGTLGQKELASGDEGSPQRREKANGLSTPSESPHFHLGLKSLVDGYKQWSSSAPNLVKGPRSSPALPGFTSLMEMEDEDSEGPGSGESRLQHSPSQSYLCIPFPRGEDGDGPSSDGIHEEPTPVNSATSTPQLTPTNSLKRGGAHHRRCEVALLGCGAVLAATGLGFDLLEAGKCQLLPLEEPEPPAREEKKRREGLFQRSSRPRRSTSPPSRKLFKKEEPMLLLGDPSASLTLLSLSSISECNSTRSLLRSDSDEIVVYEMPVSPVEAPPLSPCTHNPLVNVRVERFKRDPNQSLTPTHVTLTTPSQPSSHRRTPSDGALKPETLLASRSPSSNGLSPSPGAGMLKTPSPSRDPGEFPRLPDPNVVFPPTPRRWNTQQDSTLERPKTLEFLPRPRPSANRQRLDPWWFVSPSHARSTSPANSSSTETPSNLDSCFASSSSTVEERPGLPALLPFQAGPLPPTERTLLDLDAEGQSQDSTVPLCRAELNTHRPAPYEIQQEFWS

Consider `COc1cc(N(C)c2ccnc3ccc(C(F)(F)F)cc23)cc(OC)c1OC`, for which the % binding in assay [1] is 88%; in assay [2] it was 75%.

Take `Nc1cnc(N2CCc3cc(S(=O)(=O)Nc4c(F)cc(Cl)cc4F)cc(N4CCCC4=O)c32)nc1` [TP-020n]: the % of control in [3] worked out at 100%. On to `N#Cc1cccc(-c2c[nH]c3ncnc(N4CCOCC4)c23)c1`, for which the % of control in [4] is 47%. As for `CC[C@@H]1[C@H](F)C(=O)N[C@@H]1COc1nccc2cc(C(N)=O)c(OC)cc12` [ZIMLOVISERTIB], in [5], the % of inhibition is -3.6%. In [6], `COc1cc(Nc2nc(C)cc(-c3cnn4nc(OC)ccc34)n2)cc(C(F)(F)F)c1` yielded a % of control of 98%.

Compound `CC(=O)c1cc(-c2ccccc2OCC2CC2)c2ncccn12` returned a % of control in assay [7] of 115%.

Regarding `COCC(=O)NC/C=C/c1ccc2ncnc(Nc3ccc(Oc4ccc(C)nc4)c(C)c3)c2c1` [CP-724714], the % of control in assay [8] came to 100%; in assay [9], 80%.
